In patent publication US6908913B2, “Carbapenem derivatives” (Meiji Seiki Kaisha, Ltd., priority 2000, dated 2005):
≈ marks a conversion by molar mass, not a printed value.

Experiments:
B. catarrhalis W-0500 = test: Antibiotic activities (MIC), agar dilution; assay type: cell-based; conditions: Moraxella catarrhalis, W0500, Sensitivity Disk agar-N+5% Horse blood, inoculant 10^6 CFU/ml, read-out: minimum inhibiting concentration (MIC)
Experimental: (§1) The minimum inhibiting concentrations (MIC, μg/ml) of representative compounds among the novel carbapenem derivatives according to the present invention to various pathogenic bacteria were measured in accordance with the method described in CHEMOTHERAPY, vol. 16, No. 1, 99, 1968. The culture medium for measurement was Sensitivity Disk agar-N+5% Horse blood, and the amount of inoculants was 10^6 CFU/ml.

E. coli NIHJ JC-2 = test: Antibiotic activities (MIC), agar dilution; assay type: cell-based; conditions: Escherichia coli, NIHJJC2, Sensitivity Disk agar-N+5% Horse blood, inoculant 10^6 CFU/ml, read-out: minimum inhibiting concentration (MIC)
Experimental: as §1

H. influenzae PRC44 = test: Antibiotic activities (MIC), agar dilution; assay type: cell-based; conditions: Haemophilus influenzae, Sensitivity Disk agar-N+5% Horse blood, inoculant 10^6 CFU/ml, read-out: minimum inhibiting concentration (MIC)
Experimental: as §1

K. pneumoniae PCI602 = test: Antibiotic activities (MIC), agar dilution; assay type: cell-based; conditions: Klebsiella pneumoniae, Sensitivity Disk agar-N+5% Horse blood, inoculant 10^6 CFU/ml, read-out: minimum inhibiting concentration (MIC)
Experimental: as §1

S. aureus 209P JC-1 = test: Antibiotic activities (MIC), agar dilution; assay type: cell-based; conditions: Staphylococcus aureus, Sensitivity Disk agar-N+5% Horse blood, inoculant 10^6 CFU/ml, read-out: minimum inhibiting concentration (MIC)
Experimental: as §1

[1] = test system: S. aureus M126 (methicillin-hyperresistant strain); test: Antibiotic activities (MIC), agar dilution; assay type: cell-based; conditions: Staphylococcus aureus, Sensitivity Disk agar-N+5% Horse blood, inoculant 10^6 CFU/ml, read-out: minimum inhibiting concentration (MIC)
Experimental: as §1

[2] = test system: S. aureus M126 HR (methicillin-hyperresistant strain); test: Antibiotic activities (MIC), agar dilution; assay type: cell-based; conditions: Staphylococcus aureus, Sensitivity Disk agar-N+5% Horse blood, inoculant 10^6 CFU/ml, read-out: minimum inhibiting concentration (MIC)
Experimental: as §1

[3] = test system: S. pneumoniae PRC9 (penicillin-hyperresistant strain); test: Antibiotic activities (MIC), agar dilution; assay type: cell-based; conditions: Streptococcus pneumoniae, Sensitivity Disk agar-N+5% Horse blood, inoculant 10^6 CFU/ml, read-out: minimum inhibiting concentration (MIC)
Experimental: as §1

[4] = test system: Staphylococcus aureus MF126 (MRSA); test: Therapeutic effect on mice subjected to general infection with MRSA; assay type: in vivo; conditions: cyclophosphamide-treated mice, subcutaneous with cilastatin 2 and 4 hours after infection, survival rate on seventh day
Experimental: The therapeutic effect of representative compounds among the novel carbapenem derivatives according to the present invention on mice subjected to general infection with MRSA were assayed by the following method, and the results are shown in Table 2. Specifically, cyclophosphamide (200 mg/kg) was administered intraperitoneally to mice (n=8), and, four days after the administration of cyclophosphamide, Staphylococcus aureus MF126 (MRSA) was inoculated intraperitoneally to infect the mice with MRSA. Cilastatin (1 mg/mouse) and the carbapenem compound in an indicated amount were subcutaneously administered two hours and four hours after the infection. ED50 was calculated based on the survival rate on the seventh day after the infection.

[5] = assay type: in vivo; conditions: intravenously, 1,000 mg/kg, ICR male mice, three mice per group
Experimental: The compound of Example 1 was administered intravenously to mice (ICR, male, each group consisting of three mice) in an amount of 2,000 mg/kg.
The compound of Example 2 was administered intravenously to mice (ICR, male, each group consisting of three mice) in an amount of 1,000 mg/kg.

[6] = Amount of inoculant: 2.8 × 10^6 CFU/mouse
[7] = Amount of inoculant: 5.9 × 10^6 CFU/mouse

SMILES | MIC (B. catarrhalis W-0500) [µg/mL] | MIC (E. coli NIHJ JC-2) [µg/mL] | MIC (H. influenzae PRC44) [µg/mL] | MIC (K. pneumoniae PCI602) [µg/mL] | MIC (S. aureus 209P JC-1) [µg/mL] | MIC [1] [µg/mL] | MIC [2] [µg/mL] | MIC [3] [µg/mL] | ED50 [4, 6] [mg/mouse] | ED50 [4, 7] [mg/mouse] | ED50 ([4]; Amount of inoculant: 2.5 × 10^6 CFU/mouse) [mg/mouse] | survival in acute toxicity test [5] | ED50 ([4]; Amount of inoculant: 2.9 × 10^6 CFU/mouse) [mg/mouse]
CN[C@H](CC(C)C)C(=O)N[C@H]1C(=O)N[C@@H](CC(N)=O)C(=O)N[C@H]2C(=O)N[C@H]3C(=O)N[C@H](C(=O)N[C@H](C(=O)O)c4cc(O)cc(O)c4-c4cc3ccc4O)[C@H](O)c3ccc(c(Cl)c3)Oc3cc2cc(c3O[C@@H]2O[C@H](CO)[C@@H](O)[C@H](O)[C@H]2O[C@H]2C[C@](C)(N)[C@H](O)[C@H](C)O2)Oc2ccc(cc2Cl)[C@H]1O [Vancomycin, reference compound] |  |  |  |  |  |  |  |  | 0.50 | 0.71 |  |  | 
C[C@@H](O)[C@H]1C(=O)N2C(C(=O)[O-])=C(c3cn4cnc(C(=O)c5cc(SCCN)c[n+](CC(=O)O)c5)c4s3)[C@H](C)[C@H]12 [Example 37, (1S,5R,6S)-2-[7-[5-(2-Aminoethyl)thio-1-carboxylmethylpyridinium-3-yl]carbonylimidazo[5,1-b]-thiazol-2-yl]-6-((1R)-1-hydroxyethyl)-1-methyl-1-carbapen-2-em-3-carboxylate] |  |  |  |  |  |  |  |  |  |  | 0.139 |  | 
C[C@@H](O)[C@H]1C(=O)N2C(C(=O)[O-])=C(c3cn4cnc(C(=O)c5ccc[n+](CC(N)=O)c5)c4s3)[C@H](C)[C@H]12 [Example 2, (1S,5R,6S)-2-[7-(1-Carbamoylmethylpyridinium-3-yl)carbonylimidazo[5,1-b]thiazol-2-yl]-6-((1R)-1-hydroxyethyl)-1-methyl-1-carbapen-2-em-3-carboxylate] | 0.016 (≈ 0.0323 µM) | 0.031 (≈ 0.0626 µM) | 0.031 (≈ 0.0626 µM) | 0.063 (≈ 0.127 µM) | < 0.008 | 0.5 (≈ 1.01 µM) | 2 (≈ 4.04 µM) | 0.031 (≈ 0.0626 µM) | 0.07 |  |  | all of the mice survived | 
C[C@@H](O)[C@H]1C(=O)N2C(C(=O)O)=C(c3cn4cnc(C(=O)[C@@H]5CCCN5)c4s3)[C@H](C)[C@H]12 [Example 11, Sodium (1S,5R,6S)-6-((1R)-1-hydroxyethyl)-1-methyl-2-[7-((2S)-pyrrolidin-2-yl)carbonylimidazo[5,1-b]thiazol-2-yl]-1-carbapen-2-em-3-carboxylate] |  |  |  |  |  |  |  |  | 0.25 |  |  |  | 
C[C@@H](O)[C@H]1C(=O)N2C(C(=O)[O-])=C(c3cn4cnc(C(=O)c5ccc[n+](CCNS(N)(=O)=O)c5)c4s3)[C@H](C)[C@H]12 [Example 65, (1S,5R,6S)-6-((1R)-1-Hydroxyethyl)-1-methyl-2-[7-[1-(2-sulfamoylaminoethyl)pyridinium-3-yl]carbonylimidazo[5,1-b]thiazol-2-yl]-1-carbapen-2-em-3-carboxylate] |  |  |  |  |  |  |  |  |  | 0.32 |  |  | 

Second part, led by results:

MIC (B. catarrhalis W-0500) [µg/mL] | MIC (E. coli NIHJ JC-2) [µg/mL] | MIC (H. influenzae PRC44) [µg/mL] | MIC (K. pneumoniae PCI602) [µg/mL] | MIC (S. aureus 209P JC-1) [µg/mL] | MIC [1] [µg/mL] | MIC [2] [µg/mL] | MIC [3] [µg/mL] | SMILES | ED50 [4, 6] [mg/mouse] | ED50 [4, 7] [mg/mouse] | ED50 ([4]; Amount of inoculant: 2.5 × 10^6 CFU/mouse) [mg/mouse] | survival in acute toxicity test [5] | ED50 ([4]; Amount of inoculant: 2.9 × 10^6 CFU/mouse) [mg/mouse]
0.031 | 0.125 | 0.031 | 0.25 | 0.016 | 1 | 8 | 0.063 | CC(=O)c1ncn2cc(C3=C(C(=O)[O-])N4C(=O)[C@H]([C@@H](C)O)[C@H]4[C@H]3C)sc12.[Na+] [Compound A, Sodium (1S,5R,6S)-2-(7-acetylimidazo[5,1-b]thiazol-2-yl)-6-((1R)-1-hydroxyethyl)-1-methyl-1-carbapen-2-em-3-carboxylate, reference compound] |  |  |  |  | 
0.031 (≈ 0.0644 µM) | 0.031 (≈ 0.0644 µM) | 0.063 (≈ 0.131 µM) | 0.031 (≈ 0.0644 µM) | 0.008 (≈ 0.0166 µM) | 0.25 (≈ 0.519 µM) | 1 (≈ 2.08 µM) | 0.031 (≈ 0.0644 µM) | C[C@@H](O)[C@H]1C(=O)N2C(C(=O)[O-])=C(c3cn4cnc(C(=O)c5ccc[n+](CC(N)=O)c5)c4s3)C[C@H]12 [Example 39, (5R,6S)-2-[7-(1-Carbamoylmethylpyridinium-3-yl)carbonylimidazo[5,1-b]thiazol-2-yl]-6-((1R)-1-hydroxyethyl)-1-carbapen-2-em-3-carboxylate] |  |  |  |  | 0.02
< 0.025 | 3.13 | 0.1 | 3.13 | < 0.006 | 1.56 | 6.25 | 0.1 | C[C@@H](O)[C@H]1C(=O)N2C(C(=O)[O-])=C(c3cn4cnc(C(=O)c5ccccc5)c4s3)[C@H](C)[C@H]12.[Na+] [Compound B, Sodium (1S,5R,6S)-2-(7-benzoylimidazo[5,1-b]thiazol-2-yl)-6-((1R)-1-hydroxyethyl)-1-methyl-1-carbapen-2-em-3-carboxylate, reference compound] |  |  |  |  | 
0.016 | 1 | 0.031 | 1 | < 0.008 | 1 | 4 | 0.031 | C[C@@H](O)[C@H]1C(=O)N2C(C(=O)O)=C(c3cn4cnc(C(=O)c5cccnc5)c4s3)[C@H](C)[C@H]12 [Example 1, Sodium (1S,5R,6S)-6-((1R)-1-hydroxyethyl)-1-methyl-2-[7-(pyridin-3-yl)carbonylimidazo[5,1-b]thiazol 2-yl]-1-carbapen-2-em-3-carboxylate] |  |  |  |  | 
0.063 (≈ 0.21 µM) | 0.125 (≈ 0.418 µM) | 8 (≈ 26.7 µM) | 0.25 (≈ 0.835 µM) | 0.008 (≈ 0.0267 µM) | 4 (≈ 13.4 µM) | 64 (≈ 214 µM) | 0.25 (≈ 0.835 µM) | C[C@@H](O)[C@H]1C(=O)N2C(C(=O)O)=C(SCCN=CN)C[C@H]12 [Compound C, Imipenem, reference compound] |  |  |  |  | 
